Reference: patent publication US4680286A, “Use of selenium-containing compounds for negating the toxic effects of gold compounds used in the treatment of rheumatoid arthritis, and a novel selenium-containing gold compound and use thereof as an anti-rheumatoid arthritis medicine” (priority 1985, dated 1987)

What was measured:
[1] = test system: toxic effects of Na3 Au(S2 O3)2.2H2 O; assay: Gold toxicity in mice given sodium selenite prior to (drinking water) or after (injection) the gold compound; assay type: in vivo; settings: gold at or slightly exceeding reported LD50, vs gold-only control
Method: (§1) A number of experiments in which sodium selenite was given to mice both prior to and after treatment with a gold compound were conducted. In the first series of experiments in which the selenium compound was administered prior to the gold injection, mice were given sodium selenite in their drinking water over an extended period of time. Periodically, the mice were sacrificed and the kidney and liver were analyzed to monitor the accumulation of selenium. When observed selenium levels in the liver were on the order of 5 ppm, the remaining animals were given the gold compound at levels slightly exceeding the reported LD50 value.
In the second series of experiments, in which sodium selenite were injected after the gold injection, the mice were given dosages of gold compounds at the reported LD50 value and were then injected with sodium selenite. In both series of experiments, a control group which received the gold compound but no selenium compound was maintained. […] In all cases, the gold was administered as Na3 Au(S2 O3)2.2H2 O.

[2] = Accumulation of selenium in tissue of mice; assay type: in vivo; settings: sodium selenite in drinking water over an extended period, level at which gold was given
Method: as §1
In these experiments, large groups of mice were fed other type selenium compounds, which were sodium selenate, selenium yeast and selenocystine. Periodically, one would be sacrificed and the selenium concentration of the kidney and liver would be determined. When above 5 to about 7 ppm selenium concentrations were obtained, the remaining mice were given injections of Na3 Au(S2 O3)2.2H2 O at the reported LD50 value. A control group that received no dietary selenium was maintained. This control group was given the gold salt at the same time as the selenium accumulated mice. The toxic effects of the gold was then compared in the two groups of mice.

[3] = test system: cadmium-induced testicular demage; settings: Kar, Das and Mukerji 1960; cited from earlier work
[4] = test system: toxicity of mercury, silver and thallium; settings: observed by other researchers; cited from earlier work

SMILES	toxic effects compared with mice which received only the gold treatment [1]	observed selenium levels in the liver [2] [ppm]	protection against cadmium-induced testicular damage [3]	protection against the toxicity of mercury, silver and thallium [4]
O=[Se](O)O [sodium selenite]	markedly reduced toxic effects	~5	–	–
[Se] [selenium]	–	–	prevents cadmium-induced testicular demage	Protection effects
